In patent publication US20220144823A1, “PYRAZOLOPYRIDINE DERIVATIVES AS INHIBITORS OF PASK” (Galapagos NV, priority 2019, published 2022):

Tests used:
[1] = molecular target: T1, human PASK (Homo sapiens, UniProt Q96RG2); assay: ADP-Glo kinase assay; assay type: biochemical; details: ADPGlo PASK kinase assay, 25 μM ATP, ZIPtide 25 μM
T1 construct: purchased ThermoFisher Scientific PR7013A
How it was run: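 Human recombinant PASK phosphorylating ZIPtide peptide with ATP, 120 min at RT; compounds in 10-point 1/5 dilution series, 1% DMSO final. ADP formed measured by ADP-Glo luminescence after ATP depletion; percent inhibition fitted to dose-response curves for averaged IC50.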

[2] = molecular target: T2, autophosphorylation of PASK at position Thr307 in Hek293 cells overexpressing PASK (Homo sapiens, UniProt Q96RG2); assay: PASK autophosphorylation ELISA assay; assay type: cell-based; details: 24 h, ELISA readout
T2 construct: expressed in transfected cells; host or cells: Hek293
T2 sequence (Q96RG2 with tags, fused parts or gaps): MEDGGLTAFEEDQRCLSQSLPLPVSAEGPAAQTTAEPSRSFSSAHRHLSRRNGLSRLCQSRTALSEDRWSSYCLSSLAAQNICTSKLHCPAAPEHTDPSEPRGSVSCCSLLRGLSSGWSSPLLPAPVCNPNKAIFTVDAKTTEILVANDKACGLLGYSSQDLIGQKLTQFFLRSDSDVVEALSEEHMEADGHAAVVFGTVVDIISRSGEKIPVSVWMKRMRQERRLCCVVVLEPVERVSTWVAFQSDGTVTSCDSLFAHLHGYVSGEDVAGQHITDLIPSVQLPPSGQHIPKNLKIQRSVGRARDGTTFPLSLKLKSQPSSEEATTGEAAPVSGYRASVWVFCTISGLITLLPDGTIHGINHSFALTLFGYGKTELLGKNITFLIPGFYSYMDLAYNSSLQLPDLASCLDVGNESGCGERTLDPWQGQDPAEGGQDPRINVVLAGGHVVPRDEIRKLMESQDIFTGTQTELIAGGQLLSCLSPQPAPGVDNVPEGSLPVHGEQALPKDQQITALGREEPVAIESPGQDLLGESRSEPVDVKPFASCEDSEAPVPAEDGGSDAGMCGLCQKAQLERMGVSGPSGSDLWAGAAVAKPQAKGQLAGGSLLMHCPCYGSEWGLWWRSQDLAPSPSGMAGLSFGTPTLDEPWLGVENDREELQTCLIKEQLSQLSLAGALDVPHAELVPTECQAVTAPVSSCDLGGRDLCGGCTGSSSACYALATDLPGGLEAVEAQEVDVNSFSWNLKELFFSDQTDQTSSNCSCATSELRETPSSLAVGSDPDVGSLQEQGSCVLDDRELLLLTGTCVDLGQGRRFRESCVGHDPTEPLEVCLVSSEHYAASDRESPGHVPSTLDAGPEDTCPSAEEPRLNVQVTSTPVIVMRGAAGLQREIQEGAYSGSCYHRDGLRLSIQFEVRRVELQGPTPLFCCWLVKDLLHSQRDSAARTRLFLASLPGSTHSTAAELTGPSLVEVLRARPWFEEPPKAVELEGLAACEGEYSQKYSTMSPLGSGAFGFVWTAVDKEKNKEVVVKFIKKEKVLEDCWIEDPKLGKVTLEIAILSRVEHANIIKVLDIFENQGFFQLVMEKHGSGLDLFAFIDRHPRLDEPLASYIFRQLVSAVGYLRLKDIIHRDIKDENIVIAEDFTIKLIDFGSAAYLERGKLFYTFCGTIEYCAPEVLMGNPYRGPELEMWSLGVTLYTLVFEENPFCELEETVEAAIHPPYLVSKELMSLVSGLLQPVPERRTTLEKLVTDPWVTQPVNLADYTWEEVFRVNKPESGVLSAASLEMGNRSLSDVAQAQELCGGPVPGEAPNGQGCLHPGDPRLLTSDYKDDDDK
Protocol: The compounds of the invention are profiled in a cellular assay to determine their capacity to reduce the autophosphorylation levels of PASK at position Thr307 in Hek293 cells overexpressing PASK, using an ELISA-based readout.
At day 1, a 96-well cell assay plate is coated with poly-D-lysine (50 μL/well of a 0.05 mg/mL solution in PBS) and incubated for 1 h at 37° C. The plate is subsequently washed once with PBS and stored dry at RT until further use. Hek293 cells are transfected with a pcDNA3.1-PASK(FL,WT)-FLAG construct (SEQ ID1) and seeded in culture medium (DMEM+10% FBS) in a poly-D-lysine coated 96-well plate (0.3 μL JetPEI DNA transfection reagent (Polyplus-transfection SA, Cat #101-40), 10 ng construct and 90 ng pBluescript, 60000 cells per well). […] The cell plate is incubated overnight at 37° C., 5% CO2.
At day 2, the medium of the assay plate is removed and 100 μL of fresh medium (DMEM+10% FBS) is added to the plate. Cell plate is further incubated overnight at 37° C., 5% CO2. This to allow further expression of PASK protein.
At day 3, the medium is removed and replaced with 100 μL of serum free medium (DMEM). Test compound is added to the plate (8 points concentration curve with 1/3 dilution steps starting from 30 μM final concentration in 0.3% DMSO final). In the positive and negative control wells of the plate, 0.3% DMSO final is added. For each tested condition, duplicates are made for ELISA readout. Cell plate is incubated 24 h at 37° C., 5% CO2.
At day 4, the medium is removed and the plate is washed once with 100 μL/well PBS. Cells are lysed by adding 50 μL/well western blot lysis buffer (20 mM Tris pH 7.5, 150 mM NaCl and 1% Triton) to the plate. The assay plate is stored at −80° C. and thawed to perform the ELISA readout.
At day 1, the ELISA plate is coated with the mouse anti-FLAG antibody (2 μg/mL diluted in PBS, 100 μL/well) and incubated overnight at 4° C.
At day 2, the plate is washed once with 150 μL/well PBS. 200 μL/well blocking buffer (PBS with 3% BSA) is added and the plate is incubated for 4 h at RT. The plate is washed with 150 μL/well high salt washing buffer (20 mM Na2HPO4, 0.5% Triton X-100, 0.1% SDS, 0.1% BSA and 1 M NaCl) followed by one wash with 150 μL/well low salt washing buffer (20 mM Na2HPO4, 0.5% Triton X-100, 0.1% SDS, 0.1% BSA and 150 mM NaCl). Meanwhile, the cell lysate plate is thawed, two wells of the same condition are pooled (2×50 μL) and added to the ELISA plate. The ELISA plate is incubated overnight at 4° C.
At day 3, the ELISA plate is washed twice with 150 μL/well high salt washing buffer followed by two washes with low salt washing buffer. 100 μL/well detection antibody for pPASK (phospho-Akt substrate (RXXS*/T*) (110B7E) rabbit antibody (Cell Signaling Technology, Inc., Cat #9614) 2 μg/mL diluted in PBS with 3% BSA and 1×Halt™ protease and phosphatase inhibitor cocktail (Thermo Fisher Scientific, Inc., Cat #78447)) is added and incubated for 2 h at RT. The plate is washed twice with high and low salt wash buffer (150 μL/well) and 100 μL/well of an HRP antibody (swine anti-rabbit HRP antibody (Agilent Technologies, Inc., Cat #P039901) diluted 1/2000 in PBS with 3% BSA and 1×Halt™ protease and phosphatase inhibitor cocktail) is added to the plate, followed by an incubation for 1 h at RT in the dark (plate sealed with aluminum seal). The plate is washed twice with high and low salt wash buffer (150 μL/well) and 100 μL/well of SuperSignal™ ELISA Pico Chemiluminescent Substrate (Thermo Fisher Scientific, Inc., Cat #37070)(premix part 1 and part 2, 1/1) is added. The plate is incubated for 4 min at RT before measuring luminescence on the Luminoskan™ Ascent (Thermo Fisher Scientific, Inc.) (PMT default voltage; 100 ms integration time). […]

[3] = molecular target: T1, human PASK; assay: 33P radioactive kinase assay; assay type: biochemical; details: 33P radioactive PASK kinase assay, 10 μM ATP, ZIPtide 1 μM
How it was run: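 Human PASK phosphorylation of ZIPtide peptide was measured by incorporation from [^33P]-ATP plus unlabelled ATP, with a 10-point, 1/5 dilution series from 0.2 or 2 mM DMSO stocks and 1% DMSO final. Reactions were stopped with phosphoric acid, filter-harvested, washed and scintillation-counted. Percentage inhibition gave dose–response curves and averaged IC50s.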

T1 sequence (Q96RG2 whole entry): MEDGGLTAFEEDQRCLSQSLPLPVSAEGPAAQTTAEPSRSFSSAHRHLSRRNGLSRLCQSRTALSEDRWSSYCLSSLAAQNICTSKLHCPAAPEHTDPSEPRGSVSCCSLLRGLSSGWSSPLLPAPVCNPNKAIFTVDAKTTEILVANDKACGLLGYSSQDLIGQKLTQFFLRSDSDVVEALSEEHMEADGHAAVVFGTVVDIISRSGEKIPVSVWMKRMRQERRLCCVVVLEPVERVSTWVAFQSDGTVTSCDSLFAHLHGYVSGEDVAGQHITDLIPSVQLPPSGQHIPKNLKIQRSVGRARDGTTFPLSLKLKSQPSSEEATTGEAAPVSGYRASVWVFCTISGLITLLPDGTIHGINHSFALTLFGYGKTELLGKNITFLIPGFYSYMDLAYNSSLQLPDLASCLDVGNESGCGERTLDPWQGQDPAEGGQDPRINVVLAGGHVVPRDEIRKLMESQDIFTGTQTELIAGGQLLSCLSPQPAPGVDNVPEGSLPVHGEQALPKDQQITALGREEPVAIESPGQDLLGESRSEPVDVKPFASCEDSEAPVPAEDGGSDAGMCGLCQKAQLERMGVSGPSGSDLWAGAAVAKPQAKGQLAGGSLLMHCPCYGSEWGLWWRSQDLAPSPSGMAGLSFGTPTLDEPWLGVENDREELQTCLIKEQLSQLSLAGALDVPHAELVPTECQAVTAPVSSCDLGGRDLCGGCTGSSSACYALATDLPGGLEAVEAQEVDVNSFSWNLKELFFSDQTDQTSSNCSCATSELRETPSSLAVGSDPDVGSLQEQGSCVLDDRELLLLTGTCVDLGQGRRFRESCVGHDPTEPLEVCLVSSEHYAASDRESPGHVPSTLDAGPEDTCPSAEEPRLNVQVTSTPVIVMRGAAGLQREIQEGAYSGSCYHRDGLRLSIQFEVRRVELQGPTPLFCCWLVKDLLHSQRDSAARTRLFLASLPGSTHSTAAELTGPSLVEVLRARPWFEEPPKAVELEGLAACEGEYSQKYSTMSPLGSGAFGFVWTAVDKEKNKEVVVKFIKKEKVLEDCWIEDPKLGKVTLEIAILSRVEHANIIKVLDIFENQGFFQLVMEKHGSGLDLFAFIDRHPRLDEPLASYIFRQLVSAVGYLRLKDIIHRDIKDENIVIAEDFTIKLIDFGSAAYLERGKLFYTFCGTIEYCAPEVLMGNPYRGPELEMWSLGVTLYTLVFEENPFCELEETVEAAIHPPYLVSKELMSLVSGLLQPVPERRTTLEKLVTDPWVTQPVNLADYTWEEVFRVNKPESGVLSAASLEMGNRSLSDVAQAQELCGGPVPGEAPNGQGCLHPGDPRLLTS

Row | Compound | IC50 [1] [nM] | IC50 [2] [nM] | IC50 [3] [nM]
1 | Cc1nn(C(F)F)c(C)c1-c1cnn2ccc(-c3cc(C(=O)O)co3)cc12 [Cpd 35, 5-[3-[1-(difluoromethyl)-3,5-dimethyl-pyrazol-4-yl]pyrazolo[1,5-a]pyridin-5-yl]furan-3-carboxylic acid] | 0.01 to 10 | 1000 to 5000 | 0.01 to 10
2 | CCOc1nc(-c2ccn3ncc(-c4c(C)nn(C)c4C)c3c2)sc1C(=O)O [Cpd 9, 4-ethoxy-2-[3-(1,3,5-trimethylpyrazol-4-yl)pyrazolo[1,5-a]pyridin-5-yl]thiazole-5-carboxylic acid] | 0.01 to 10 | 500 to 1000 | 0.01 to 10
3 | Cc1nn(CC(F)(F)F)c(C)c1-c1cnn2ccc(-c3nc(C4CC4)c(C(=O)O)s3)cc12 [Cpd 42, 4-cyclopropyl-2-[3-[3,5-dimethyl-1-(2,2,2-trifluoroethyl)pyrazol-4-yl]pyrazolo[1,5-a]pyridin-5-yl]thiazole-5-carboxylic acid] | 0.01 to 10 | 0.1 to 500 | 0.01 to 10
4 | COc1nc(-c2ccn3ncc(-c4c(C)nn(C)c4C)c3c2)sc1C(=O)O [Cpd 8, 4-methoxy-2-[3-(1,3,5 trimethylpyrazol-4-yl)pyrazolo[1,5-a]pyridin-5-yl]thiazole-5-carboxylic acid] | 0.01 to 10 | > 5000 | 0.01 to 10
